Test results reported in patent US11331299B2, “Medicinal use of serrulatane diterpenes” (The University of Sydney, priority 2016, dated 2022).

Tests used:
[1] = target: T1, PB1(2) (h) bromodomain (Homo sapiens, UniProt Q86U86); assay: Epigenetic binding assay, Bromodomain; details: read-out: % Inhibition of Control Specific Binding
T1 construct: Bromodomain

[2] = target: T2, CBX5 (h) chromodomain (Homo sapiens, UniProt P45973); assay: Epigenetic binding assay, Chromodomain; details: read-out: % Inhibition of Control Specific Binding
T2 construct: Recognition and specificity determinants of the human cbx chromodomains; Eurofins CEREP (France), contract laboratory
T2 sequence (P45973 20-78 limits assumed): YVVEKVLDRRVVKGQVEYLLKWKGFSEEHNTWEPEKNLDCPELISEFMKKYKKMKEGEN

[3] = target: T3, JMJD2A (h) (Homo sapiens, UniProt O75164); assay: Epigenetic enzyme assay, Demethylases (KDMs); format: biochemical; details: read-out: % Inhibition of Control Values
T3 sequence (O75164 1-1064): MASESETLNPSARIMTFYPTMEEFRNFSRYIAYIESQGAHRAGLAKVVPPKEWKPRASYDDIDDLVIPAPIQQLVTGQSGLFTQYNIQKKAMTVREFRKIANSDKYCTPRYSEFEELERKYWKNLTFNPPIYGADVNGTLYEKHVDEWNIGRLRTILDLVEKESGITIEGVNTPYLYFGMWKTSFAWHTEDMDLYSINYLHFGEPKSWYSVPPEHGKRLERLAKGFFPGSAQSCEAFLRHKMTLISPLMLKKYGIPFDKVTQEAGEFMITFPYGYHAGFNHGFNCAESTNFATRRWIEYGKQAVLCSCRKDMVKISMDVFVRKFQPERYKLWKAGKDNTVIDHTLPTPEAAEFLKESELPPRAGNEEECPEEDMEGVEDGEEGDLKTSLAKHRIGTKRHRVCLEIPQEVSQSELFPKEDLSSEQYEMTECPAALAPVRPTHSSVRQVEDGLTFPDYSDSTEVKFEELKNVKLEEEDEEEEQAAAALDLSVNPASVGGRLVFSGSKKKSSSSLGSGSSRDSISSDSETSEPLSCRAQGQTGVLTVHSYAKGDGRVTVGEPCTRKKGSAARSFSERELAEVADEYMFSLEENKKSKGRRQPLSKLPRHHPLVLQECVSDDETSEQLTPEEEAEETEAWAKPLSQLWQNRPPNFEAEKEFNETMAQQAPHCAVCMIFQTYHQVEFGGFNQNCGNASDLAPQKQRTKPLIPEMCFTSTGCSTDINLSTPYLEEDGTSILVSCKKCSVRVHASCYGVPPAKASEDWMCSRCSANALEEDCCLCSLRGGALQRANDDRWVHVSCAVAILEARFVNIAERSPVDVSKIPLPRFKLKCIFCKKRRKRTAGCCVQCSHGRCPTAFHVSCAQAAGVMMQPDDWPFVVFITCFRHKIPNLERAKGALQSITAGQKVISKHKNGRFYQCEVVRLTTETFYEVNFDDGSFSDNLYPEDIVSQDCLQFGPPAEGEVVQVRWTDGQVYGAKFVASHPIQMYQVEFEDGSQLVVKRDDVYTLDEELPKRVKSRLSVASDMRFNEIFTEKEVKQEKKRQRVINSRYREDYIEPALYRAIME

[4] = target: PHF8(h) (Homo sapiens, UniProt Q9UPP1); assay: Epigenetic enzyme assay, Demethylases (KDMs); format: biochemical; details: read-out: % Inhibition of Control Values
PHF8(h), sequence (Q9UPP1 whole entry): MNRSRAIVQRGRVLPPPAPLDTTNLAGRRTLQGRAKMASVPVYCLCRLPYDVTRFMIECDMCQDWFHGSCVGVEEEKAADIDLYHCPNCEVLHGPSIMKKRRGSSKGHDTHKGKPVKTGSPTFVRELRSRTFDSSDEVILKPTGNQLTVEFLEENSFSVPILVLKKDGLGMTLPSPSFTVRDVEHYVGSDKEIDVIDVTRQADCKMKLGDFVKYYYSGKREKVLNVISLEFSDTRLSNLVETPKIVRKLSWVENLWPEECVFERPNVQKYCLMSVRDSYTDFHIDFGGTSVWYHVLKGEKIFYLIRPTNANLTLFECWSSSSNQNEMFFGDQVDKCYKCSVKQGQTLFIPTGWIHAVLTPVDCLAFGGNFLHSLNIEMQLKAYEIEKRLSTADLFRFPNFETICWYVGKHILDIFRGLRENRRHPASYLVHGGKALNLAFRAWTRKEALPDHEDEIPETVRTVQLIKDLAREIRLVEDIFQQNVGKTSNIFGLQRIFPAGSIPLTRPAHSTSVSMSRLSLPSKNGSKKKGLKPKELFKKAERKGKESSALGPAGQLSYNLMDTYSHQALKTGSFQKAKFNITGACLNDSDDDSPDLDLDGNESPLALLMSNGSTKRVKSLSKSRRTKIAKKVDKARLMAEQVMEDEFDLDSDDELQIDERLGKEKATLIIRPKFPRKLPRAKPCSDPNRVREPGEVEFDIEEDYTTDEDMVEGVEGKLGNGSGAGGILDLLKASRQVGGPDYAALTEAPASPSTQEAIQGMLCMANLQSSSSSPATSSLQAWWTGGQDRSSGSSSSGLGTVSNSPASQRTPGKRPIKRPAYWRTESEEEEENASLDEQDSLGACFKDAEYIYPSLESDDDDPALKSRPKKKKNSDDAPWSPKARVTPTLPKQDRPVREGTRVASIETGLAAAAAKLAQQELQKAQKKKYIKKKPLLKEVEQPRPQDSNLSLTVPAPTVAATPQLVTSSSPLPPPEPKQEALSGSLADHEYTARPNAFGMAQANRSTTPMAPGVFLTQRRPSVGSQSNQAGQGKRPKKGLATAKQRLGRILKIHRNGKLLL

[5] = target: HDAC1 (h) (Homo sapiens, UniProt Q13547); assay: Epigenetic enzyme assay, Histone deacetylase (HDACs); format: biochemical; details: read-out: % Inhibition of Control Values
HDAC1 (h), sequence (Q13547 whole entry): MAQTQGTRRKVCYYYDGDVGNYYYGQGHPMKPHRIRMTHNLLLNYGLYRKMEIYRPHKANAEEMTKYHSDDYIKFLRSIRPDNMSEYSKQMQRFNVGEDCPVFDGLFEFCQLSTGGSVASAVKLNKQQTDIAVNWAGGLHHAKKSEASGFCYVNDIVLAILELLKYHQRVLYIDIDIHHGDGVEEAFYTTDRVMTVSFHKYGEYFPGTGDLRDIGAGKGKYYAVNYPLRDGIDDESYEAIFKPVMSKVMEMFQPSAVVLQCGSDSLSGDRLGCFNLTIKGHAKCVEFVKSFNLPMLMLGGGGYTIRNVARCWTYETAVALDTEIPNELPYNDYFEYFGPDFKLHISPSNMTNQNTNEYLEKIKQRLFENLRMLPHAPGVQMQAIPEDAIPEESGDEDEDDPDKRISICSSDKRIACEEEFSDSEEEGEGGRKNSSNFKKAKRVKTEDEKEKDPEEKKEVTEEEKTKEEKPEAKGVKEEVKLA

[6] = target: USP 14 (h) (Homo sapiens, UniProt P54578); assay: Epigenetic enzyme assay, Ubiquitin modifying enzymes; format: biochemical; details: 10 μM; read-out: % Inhibition of Control Values
USP 14 (h), sequence (P54578 whole entry): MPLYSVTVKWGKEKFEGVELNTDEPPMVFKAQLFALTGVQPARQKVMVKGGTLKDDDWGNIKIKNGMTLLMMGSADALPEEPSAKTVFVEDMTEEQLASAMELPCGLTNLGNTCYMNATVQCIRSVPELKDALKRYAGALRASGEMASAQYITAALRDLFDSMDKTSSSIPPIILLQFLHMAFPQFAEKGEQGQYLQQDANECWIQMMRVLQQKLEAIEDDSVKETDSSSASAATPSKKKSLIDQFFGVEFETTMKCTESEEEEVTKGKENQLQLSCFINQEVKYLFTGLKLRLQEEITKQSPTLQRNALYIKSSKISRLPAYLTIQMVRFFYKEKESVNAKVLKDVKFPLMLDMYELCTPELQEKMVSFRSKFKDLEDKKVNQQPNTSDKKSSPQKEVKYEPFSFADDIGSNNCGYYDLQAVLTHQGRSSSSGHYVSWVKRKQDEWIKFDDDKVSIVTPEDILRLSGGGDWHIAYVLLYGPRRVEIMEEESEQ

[7] = target: USP 16 (h) (Homo sapiens, UniProt Q9Y5T5); assay: as above; format: biochemical; details: 10 μM; read-out: % Inhibition of Control Values
USP 16 (h), sequence (Q9Y5T5 whole entry): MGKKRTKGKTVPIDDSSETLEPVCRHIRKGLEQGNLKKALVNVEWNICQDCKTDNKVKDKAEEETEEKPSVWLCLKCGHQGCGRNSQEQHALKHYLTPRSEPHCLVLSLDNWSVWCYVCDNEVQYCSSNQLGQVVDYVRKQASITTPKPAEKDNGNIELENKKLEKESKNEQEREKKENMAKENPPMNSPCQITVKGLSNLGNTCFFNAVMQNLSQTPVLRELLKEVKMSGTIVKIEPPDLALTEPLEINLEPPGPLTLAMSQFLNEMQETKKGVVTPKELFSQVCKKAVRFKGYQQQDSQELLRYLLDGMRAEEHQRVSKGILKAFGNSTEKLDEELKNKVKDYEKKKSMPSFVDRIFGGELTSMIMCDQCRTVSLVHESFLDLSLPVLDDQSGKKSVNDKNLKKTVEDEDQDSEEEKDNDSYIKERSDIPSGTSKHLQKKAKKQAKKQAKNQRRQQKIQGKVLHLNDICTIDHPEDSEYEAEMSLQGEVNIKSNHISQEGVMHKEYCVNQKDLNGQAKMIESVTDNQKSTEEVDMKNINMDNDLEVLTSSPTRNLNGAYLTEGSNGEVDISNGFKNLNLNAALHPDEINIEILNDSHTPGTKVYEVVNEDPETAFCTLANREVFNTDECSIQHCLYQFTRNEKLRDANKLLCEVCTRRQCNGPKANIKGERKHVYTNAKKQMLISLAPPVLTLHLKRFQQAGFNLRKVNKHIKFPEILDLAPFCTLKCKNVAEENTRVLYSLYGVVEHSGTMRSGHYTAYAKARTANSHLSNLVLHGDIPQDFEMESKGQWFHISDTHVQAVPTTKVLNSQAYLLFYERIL

[8] = target: T4, Angiotensin AT2 (Homo sapiens, UniProt P50052); assay: Angiotensin AT2 radio ligand binding; details: assay year 2015, read-out: % Control Response
T4 construct: expressed in transfected cells; host or cells: CHO-K1 cells
T4 sequence (P50052 1-363): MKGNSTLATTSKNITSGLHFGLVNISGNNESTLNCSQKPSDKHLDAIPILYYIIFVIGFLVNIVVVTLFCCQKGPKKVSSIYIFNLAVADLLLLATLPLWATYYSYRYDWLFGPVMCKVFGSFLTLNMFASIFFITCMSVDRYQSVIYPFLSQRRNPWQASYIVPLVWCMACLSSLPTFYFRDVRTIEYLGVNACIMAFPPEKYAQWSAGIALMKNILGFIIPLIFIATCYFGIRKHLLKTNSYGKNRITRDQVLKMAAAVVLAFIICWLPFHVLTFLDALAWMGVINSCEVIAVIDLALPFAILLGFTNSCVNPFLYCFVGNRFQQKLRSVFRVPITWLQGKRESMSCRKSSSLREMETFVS
Description: The in vitro pharmacological studies were conducted by Eurofins PanLab (Taiwan) using the parameters shown in Table 13 with respect to appropriate literature references.

T1 sequence (Q86U86 177-287 limits assumed): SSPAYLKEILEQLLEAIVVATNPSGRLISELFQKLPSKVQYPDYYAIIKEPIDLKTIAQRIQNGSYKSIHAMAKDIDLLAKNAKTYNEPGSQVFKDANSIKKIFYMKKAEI

Compound: CC(C)=CCC[C@H](CO)[C@@H]1CC[C@@H](C)c2c1cc(C)c(O)c2O [Compound 1, 7,8,18-trihydroxyserrulat-14-ene]
- inhibition at 10 µM [1]: 31%
- inhibition at 10 µM [2]: 25%
- inhibition at 10 µM [3]: 29%
- inhibition at 10 µM [4]: 36%
- inhibition at 10 µM [5]: -2%
- inhibition at 10 µM [6]: 1%
- inhibition at 10 µM [7]: 11%
- remaining activity at 10 µM [8]: 29%

Compound: CC(C)=CCC[C@@H]1C(O)Oc2c(C)cc(O)c3c2[C@H]1CC[C@H]3C (stereo partly drawn) [Compound 2, 5,18-epoxyserrulat-14-en-8,18-diol]
- inhibition at 10 µM [1]: 22%
- inhibition at 10 µM [2]: 24%
- inhibition at 10 µM [3]: -10%
- inhibition at 10 µM [4]: -11%
- inhibition at 10 µM [5]: -1%
- inhibition at 10 µM [6]: 0%
- inhibition at 10 µM [7]: 14%
- remaining activity at 10 µM [8]: 18%

Compound: CC(C)=CCC[C@@H]1COc2c(C)cc(O)c3c2[C@H]1CC[C@H]3C [Compound 3, 5,18-epoxy-8-hydroxyserrulat-14-ene]
- inhibition at 10 µM [1]: 13%
- inhibition at 10 µM [2]: 25%
- inhibition at 10 µM [3]: 12%
- inhibition at 10 µM [4]: 13%
- inhibition at 10 µM [5]: -1%
- inhibition at 10 µM [6]: -24%
- inhibition at 10 µM [7]: 12%
- remaining activity at 10 µM [8]: 9%
